These results are taken from PubChem BioAssay (NCI).

Structures are written as SMILES. Where “and” joins values, the source holds several entries; their conditions need not be identical. Equal values may be shown once.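 Step 1: Grow cells in 96-well plates. Step 2: Expose to compound for 48 hours at 5 concentrations. Step 3: Interpolate endpoints linearly; if unreached, use highest concentration. Abbreviation: GI50, concentration required for 50% inhibition of growth. TGI: total growth inhibition.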

Holding throughout (assay): NCI-60 cell line screen, 48 h
Assay [1] has as its system A549 NSCLC.
The subject of assay [2] is RXF 393 renal.
The test system of assay [3] is A498 renal.
In assay [4] the test system is OVCAR-8 ovarian.
The subject of assay [5] is SK-MEL-5 melanoma.
Assay [6] has as its system MOLT-4 leukemia.
Assay [7] concerns HCC-2998 colon.
Assay [8] deals with SK-MEL-2 melanoma.
The test system of assay [9] is UACC-257 melanoma.
Assay [10] concerns SNB-19 CNS.

As to `COc1ccc(C2ONC3=NCCN32)cc1` (stereo not given), the GI50 in assay [1] is 86.9 µM; in assay [2] it was over 100 µM; in [3], over 100 µM; in assay [4], 67.7 µM; in assay [5] it was 53300 nM; in assay [6], 37.1 µM. For the same compound, the GI50 was 49.7 µM in [7], over 100 µM in assay [8], over 100 µM in assay [9] and over 100 µM in [10]. For the same compound, the TGI in assay [1], in [2], in assay [3], in assay [4], in assay [5] and in [6] was over 100 µM throughout. Also, the TGI in assay [7], in assay [8], in [9] and in [10] was over 100 µM in each case.
In the case of `O=C(O)Cn1ccnc1[N+](=O)[O-]`, the TGI in assay [1], in [2], in assay [3], in [4], in assay [5] and in assay [6] was over 100 µM in each case. The TGI in assay [7], in [8], in [9] and in assay [10] was over 100 µM throughout.
For `COc1cc2cc(Oc3ccc(NC(=O)c4cccc5c4OCCO5)cc3)c(C)nc2cc1OC`, the GI50 in assay [1] is 7.04 µM; in [2] it was 8.81 µM; in assay [3], 2.06 µM; in assay [4], 3.68 µM; in assay [5] it was 2920 nM; in assay [6], 4.53 µM. Further, the GI50 in assay [7] is 5.5 µM; in [8] it was 32.9 µM; in assay [9] it was 4.79 µM; in [10], 15.5 µM. For the same compound, the TGI in assay [1] is over 100 µM; in [2], over 100 µM; in assay [3] it was 68.4 µM; in assay [4], 29.8 µM; in assay [5], over 100 µM; in [6] it was over 100 µM. In addition, the TGI in assay [7] was over 100 µM; in [8] it was over 100 µM; in assay [9] it was 63.5 µM; in assay [10] it was over 100 µM.
As for `O=C(Nc1ccccc1O)c1ccc(CNC(=O)c2ccsc2Nc2ccnc(C(F)(F)F)c2)cc1`, the GI50 in [1] is 3.21 µM; in [2] it was 1.93 µM; in [3] it was 0.787 µM; in [4], 1.57 µM; in assay [5], 1690 nM; in assay [6], 0.956 µM. The GI50 in assay [7] is 1.84 µM; in assay [8], 2.1 µM; in assay [9], 1.52 µM; in assay [10], 2.97 µM. The TGI in assay [1] was 12.5 µM; in assay [2] it was 4.82 µM; in assay [3], 3.01 µM; in assay [4], 19.1 µM; in assay [5], 4.07 µM; in [6], 9.48 µM. Besides, the TGI came to 4.33 µM in [7], 6.26 µM in assay [8], 7.03 µM in [9] and 13.2 µM in assay [10].
With `CCCCCCCCCCCCCCCCS(=O)(=O)c1ccc(NN)cc1`, the TGI in [1], in [2], in assay [3], in assay [4], in assay [5] and in assay [6] was over 10 µM throughout. Moreover, the TGI in assay [7], in assay [8], in [9] and in [10] was over 10 µM in each case.
For `CC[C@H](C)[C@H](NC(=O)[C@H]1CCCCN1C)C(=O)N(C)[C@H](C[C@@H](OC(C)=O)c1nc(C(=O)N[C@@H](Cc2ccccc2)C[C@H](C)C(=O)OC)cs1)C(C)C`, the GI50 in assay [1] is 0.000523 µM and 0.0025 µM; in [2], 0.0025 µM; in assay [3], 0.000267 µM and < 0.0025 µM; in assay [4], 0.000473 µM and 0.0025 µM; in assay [5], 0.0909 nM and < 2.5 nM; in [6], 0.00331 µM and 0.0025 µM. Further, the GI50 in assay [7] is 0.00032 µM and 0.0025 µM; in assay [8], 0.000463 µM and < 0.0025 µM; in assay [9], 8.72 µM; in assay [10] it was 0.000431 µM and 0.0025 µM. For the same compound, the TGI in assay [1] was over 25 µM; in [2], 22.7 µM; in [3] it was under 0.0025 µM; in assay [4] it was over 25 µM; in [5], 0.00455 µM and < 0.0025 µM; in [6], over 25 µM. For the same compound, the TGI in [7] was over 25 µM; in [8], under 0.0025 µM; in assay [9], over 25 µM; in assay [10] it was over 25 µM.
In the case of `COc1ccc(-c2cc(/C=C/C(=O)c3cc(OC)c(OC)c(OC)c3)[nH]n2)cc1OC`, the GI50 in assay [1] was 2.39 µM; in assay [2], 1.53 µM; in assay [3], 1.46 µM; in assay [4] it was 2.56 µM; in assay [5], 1580 nM; in assay [6] it was 1.81 µM. Further, the GI50 in assay [7] is 1.9 µM; in [8], 2.69 µM; in [9], 1.79 µM; in [10], 1.8 µM. Moreover, the TGI worked out at 9.34 µM in assay [1]; 3.16 µM in assay [2]; 4.99 µM in assay [3]; 11.7 µM in assay [4]; 2.93 µM in assay [5]; 8.86 µM in [6]. Also, the TGI came out at 3.4 µM in assay [7], 7.7 µM in assay [8], 3.8 µM in [9] and 5.32 µM in assay [10].
For `O=C(Nc1ccc(Cl)cc1)Nc1ccccc1CNc1nc(Nc2ccc(OCCN3CCCC3)cc2)ncc1Cl`, the GI50 was 1.49 µM in assay [1]; 0.898 µM in [2]; 5.22 µM in assay [3]; 1.25 µM in assay [4]; 845 nM in [5]; 1.19 µM in [6]. For the same compound, the GI50 in assay [7] was 1.22 µM; in assay [8] it was 8.99 µM; in assay [9], 0.993 µM; in [10], 2.5 µM. Besides, the TGI was 4.49 µM in [1]; 1.76 µM in assay [2]; 12.3 µM in assay [3]; 3.31 µM in [4]; 1.53 µM in assay [5]; 2.99 µM in assay [6]. In addition, the TGI in assay [7] is 3.38 µM; in [8], 17.4 µM; in assay [9] it was 2 µM; in [10] it was 11.6 µM.
